Literature values as cited in publication PMC5028780, “Receptor and transporter binding and activity profiles of albiflorin extracted from Radix paeoniae Alba” (Scientific Reports, 2016).

What was measured:
h5-HT2C receptors = details: reference not given; cited from earlier work
5-HT2C sites = tested on: 5-HT2C sites; set-up: method as in PMID 11454919, PMID 10621762; details: antagonist properties; cited from earlier work

| SMILES | affinity for h5-HT2C receptors (h5-HT2C receptors) | affinity at 5-HT2C sites (5-HT2C sites) |
| --- | --- | --- |
| CCOc1ccccc1OC(c1ccccc1)C1CNCCO1 (stereo not drawn) [Reboxetine] | mild affinity |  |
| CN(C)CCCC1(c2ccc(F)cc2)OCc2cc(C#N)ccc21 (stereo not drawn) [citalopram] |  | modest affinities |
| CN(C)CCCN1c2ccccc2CCc2ccc(Cl)cc21 [clomipramine] |  | modest affinities |
